Read-outs that look alike come from different tables or passages of the source.
Tests used:
TGFBR3 [1] = assay: RT-qPCR expression of aging-related gene TGFBR3 in HEKa; format: cell-based, human; settings: 0.01 mg/mL, 24 h
Procedure: (§2) Then, cells were lysed, and RNA was extracted (RNeasy mini kit, Qiagen). Purified RNAs were retro-transcribed (High-capacity cDNA reverse transcription kit, Applied Biosystems). RT-qPCR was performed with the panel of TaqMan assay probes (Thermo Fisher Scientific) using StepOne plus Real time PCR instrument. […] The obtained data were analyzed using the ΔΔCt method, which provides the target gene expression values as fold changes in the treated sample compared with an untreated basal sample. Both samples were normalized with the relative expression of the housekeeping gene GAPDH.

ITGB1 [2] = assay: RT-qPCR expression of aging-related gene ITGB1 in HEKa; format: cell-based, human; settings: 0.01 mg/mL, 24 h
Procedure: as §2

ITGA5 [3] = assay: RT-qPCR expression of aging-related gene ITGA5 in HDFa; format: cell-based, human; settings: 0.05 mg/mL, 6 h
Procedure: as §2

CALR = assay: RT-qPCR expression of CALR gene in HEKa; settings: 0.01 mg/mL
Procedure: HEKa cells were incubated in the presence of 0.01 mg/mL cycled peptide B for 24 hours and HDFa cells were treated with 0.05 mg/mL of cycled peptide B for 6 h. Then, cells were lysed, and RNA was extracted (RNeasy mini kit, Qiagen). Purified RNAs were retro-transcribed (High-capacity cDNA reverse transcription kit, Applied Biosystems). RT-qPCR was performed with the panel of TaqMan assay probes (Thermo Fisher Scientific) using StepOne plus Real time PCR instrument. […] The obtained data were analyzed using the ΔΔCt method, which provides the target gene expression values as fold changes in the treated sample compared with an untreated basal sample. Both samples were normalized with the relative expression of the housekeeping gene GAPDH.
Additionally, expression of CALR after treatment with 0.01 mg/mL of cycled peptides A and B for 24 hours in HEKa cells was analyze by qPCR as described in example 3.

[4] = test system: COL3A1, COL5A1, COL6A1, COL7A1, COL1A1 and COL4A1; assay: qPCR expression of collagen genes in HDFa; format: cell-based, human; settings: 6 hours, 0.001 mg/mL (COL3A1, COL5A1, COL6A1, COL7A1) or 0.1 mg/mL (COL1A1, COL4A1), compared with linear form (Figure 6A, 6B)
Procedure: (§1) HDFa cells were seeded in duplicate (n=2) in 12-well plates at a concentration of 200.000 cells/well in 106 Medium supplemented with 2% LSGS. Then, cells were incubated at 37 °C in a humidified atmosphere with 5% CO2. Next, cells were treated with cycled peptide B at different non-toxic concentrations for 6 or 24 hours. Untreated cells were used as basal control. Cells were then lysed, and replicates were pooled together for RNA extraction using Qiagen RNeasy Mini kit following manufacturer's instructions. Purified RNAs was then quantified by nanodrop, adjusted in concentration and processed for retrotranscription to cDNA using a commercially available kit (High-Capacity cDNA Reverse Transcription kit - Thermofisher Scientific, USA). Resulting cDNA was used to perform a RTqPCR using Taqman technology, and a panel of probes designed to target different type of collagens and their respective matrix metalloproteinases.
The expression of collagen genes in HDFa cells was measured by qPCR.

ITGB1 [5] = assay: RT-qPCR expression of aging-related gene ITGB1 in HDFa; format: cell-based, human; settings: 0.05 mg/mL, 6 h
Procedure: as §2

MMP3 and MMP1 = assay: qPCR expression of metalloproteases in HDFa; format: cell-based, human; settings: 24 hours, 0.01 mg/mL, compared with linear form (Figure 6C)
Procedure: as §1
Metalloproteases (MMP) are enzymes responsible of extracellular matrix degradation, also important in skin aging. The expression of MMP genes in HDFa cells was measured by qPCR after 24 hours of treatment with 0.01 mg/mL of peptide B and its linear form.

[6] = MTT assay, toxicity on HDFa cells; format: cell-based; settings: human, normalized to non-treated cells, read-out: Cell viability
Procedure: Toxicity of cycled peptides A and B was analyzed on human dermal fibroblasts (HDFa) and adult human epidermal keratinocytes HEKa cells by MTT assay. A stock solution of the peptide was prepared in distilled water at 25 mg/mL. This stock solution was further diluted to obtain the final working concentrations (0.001, 0.005, 0.01, 0.05, 0.1 and 0.5 mg/mL) in the corresponding culture medium. Untreated cells were used as negative control samples (Basal).
Briefly, HEKa and HDFa cells were seeded in 96-well plates at a concentration of 1×10^5 cells/mL in a final volume of 200 µL of medium (20,000 cells/well). HEKa cells were incubated in Dermal Cell Basal Medium supplemented with the Keratinocytes Growth Kit; and HDFa cells were cultured in Medium 106 supplemented with 2% of LSGS. Cells were incubated at 37°C, 5% CO2 and saturated humidity.
After 24 h of incubation, cells were treated with different concentrations of each peptide (0.001, 0.005, 0.01, 0.05, 0.1 and 0.5 mg/mL) in triplicates, for MTT evaluation. After 24 h of treatment with the peptide, medium was completely removed, and 100 µL of 0.5 mg/mL MTT solution in supplemented medium were added to each well and cells were incubated at 37°C for 3 h. After incubating with MTT, the medium of each well was aspirated and 150 µL of DMSO were added in order to solubilise the formazan crystals formed. The plates were placed on a shaker for 5 minutes for complete solubilisation of the crystals and then the absorbance at 570 nm of each well was determined, using the microplate reader Multiskan FC, which is directly proportional to the number of living cells in culture.
Absorbance values were normalized using the data obtained for non-treated cells (control), obtaining the % of viability shown in Tables 1 and 2. Each condition was performed in triplicate (n=3) in 3 independent experiments (N=3).
Concentrations of peptide for which viability is above 80% are considered safe for efficacy testing. On the contrary, concentrations for which viability goes below 80% are considered potentially toxic and are not used for efficacy testing purposes. Table 1: Toxicity of cycled peptides on HDFa cells.

TGFβ3 = assay: qPCR TGFβ3 expression in HDF treated with conditioned media from peptide-treated keratinocytes; format: cell-based, human
Procedure: For TGFβ3 gene expression assessment, HEKa cells were seeded in 24-well plate at a density of […] and incubated at 37 °C in a humidified atmosphere with 5% CO2. Next day, cell culture media was replaced by fresh media containing 0.0025 or 0.01 mg/mL of cycled peptide B. In parallel, HDF cells were seeded on culture plates with or without coverslips (for immunofluorescence or qPCR, respectively) and incubated for 24 h.
Conditioned media from HEKa cells after 48 hours of treatment was then transferred to HDF culture plates. Cells were maintained in culture for additional 24h (for qPCR) or for 4 days (for collagen I immunostaining).
For qPCR, cells were lysed, RNA extracted, and gene expression for TGFβ3 target was obtained as indicated in the previous examples.

ITGA5 [7] = assay: RT-qPCR expression of aging-related gene ITGA5 in HEKa; format: cell-based, human; settings: 0.01 mg/mL, 24 h
Procedure: as §2

TGFBR3 [8] = assay: RT-qPCR expression of aging-related gene TGFBR3 in HDFa; format: cell-based, human; settings: 0.05 mg/mL, 6 h
Procedure: as §2

FN = assay: RT-qPCR expression of aging-related gene FN in HEKa; format: cell-based, human; settings: 0.01 mg/mL, 24 h
Procedure: as §2

Fold change vs. Basal (TGFBR3 [1]): 1.23
Fold change vs. Basal (ITGB1 [2]): 1.65
Fold change vs. Basal (ITGA5 [3]): 1.31
CALR expression, Ratio (CALR; 24 hours, qPCR (Table 5), Basal = 1.00): 1.78
Fold change vs. Basal (CALR; CALR, 24 h (Table 3)): 2.67
Fold change vs. Basal (ITGB1 [5]): 1.66
expression of TGFβ3 over the basal expression in keratinocyte conditioned media (KCM) (TGFβ3; 24 h with conditioned media from HEKa treated 48 hours with 0.0025 mg/mL): 1.35 fold
expression of TGFβ3 over the basal expression in keratinocyte conditioned media (KCM) (TGFβ3; 24 h with conditioned media from HEKa treated 48 hours with 0.01 mg/mL): 1.60 fold
Fold change vs. Basal (ITGA5 [7]): 1.84
Fold change vs. Basal (TGFBR3 [8]): 1.74
Fold change vs. Basal (FN): 1.58
SMILES: CC(C)C[C@@H]1NC(=O)[C@H](C)NC(=O)[C@H](Cc2c[nH]cn2)NC(=O)[C@H](Cc2c[nH]c3ccccc23)NC(=O)[C@H](Cc2ccccc2)NC(=O)[C@H](CCCNC(=N)N)NC1=O [Peptide B, cyclo-Phe-Trp- His- Ala-Leu-Arg]
Mean normalized expression (TGFBR3 [1]; normalized to GAPDH): 2.54E-02
Mean normalized expression (ITGB1 [2]; normalized to GAPDH): 7.16E-01
Mean normalized expression (ITGA5 [3]; normalized to GAPDH): 2.57E-01
CALR expression, Effect (CALR; 24 hours, qPCR (Table 5)): Upregulation
Mean normalized expression (CALR; CALR, 24 h, normalized to GAPDH): 6.83E-01
expression of collagen genes [4]: improves the induction of collagen-related genes
Mean normalized expression (ITGB1 [5]; normalized to GAPDH): 1.02E+00
regulation of MMP3 and MMP1 expression (MMP3 and MMP1): reduces the expression of enzymes involved in collagen degradation
viability at 24 h ([6]; 0.001 mg/mL peptide): 100%
viability at 24 h ([6]; 0.005 mg/mL peptide): 99.8%
viability at 24 h ([6]; 0.01 mg/mL peptide): 92.9%
viability at 24 h ([6]; 0.05 mg/mL peptide): 91.9%
viability at 24 h ([6]; 0.1 mg/mL peptide): 88.2%
viability at 24 h ([6]; 0.5 mg/mL peptide): 73.7%
Mean normalized expression (ITGA5 [7]; normalized to GAPDH): 1.15E-01
Mean normalized expression (TGFBR3 [8]; normalized to GAPDH): 8.00E-03
Mean normalized expression (FN; normalized to GAPDH): 3.28E-01
